Measurements taken from the NIST ThermoML archive (doi:10.1021/je500237g).
± gives the expanded uncertainty stated by the source.

How the values were obtained:
[1] = refractive index (Na D-line) (dimensionless); settings: 293.15 K; 101.33 kPa; Liquid; Standard Abbe refractometry
[2] = Liquid; for mass density: 293.15 K, 101.33 kPa, Vibrating tube method; for vapor or sublimation pressure: Ebulliometric method (Recirculating still)

SMILES	refractive index [1]	mass density [2]	vapor or sublimation pressure ([2]; 346.5 K)	vapor or sublimation pressure ([2]; 453.7 K)	vapor or sublimation pressure ([2]; 367.1 K)	vapor or sublimation pressure ([2]; 357.6 K)
CCCO [propan-1-ol]	1.3851 ± 0.0007	804.9 ± 0.8 kg/m3	40 ± 0.2 kPa			
CCCCCCCCCCCC [dodecane]	1.4218 ± 0.0007	750 ± 0.8 kg/m3		40 ± 0.2 kPa		
CCCCO [butan-1-ol]	1.3992 ± 0.0007	810.4 ± 0.8 kg/m3			40 ± 0.2 kPa	
CC(C)CO [2-methyl-1-propanol]	1.3954 ± 0.0007	802.7 ± 0.8 kg/m3				40 ± 0.2 kPa
